Experimental data published in patent US5432175A, “Pyridine and pyridine N-oxide derivatives of diaryl methyl piperidines or piperazines, and compositions and methods of use thereof” (Schering Corporation, priority 1993, dated 1995).

Columns and labels:
[1] = system: histamine-induced bronchospasm; test: Histamine-induced bronchospasm in guinea pigs (in vivo); design: species or system guinea pig (male Hartley); conditions: oral, histamine 10 ug/kg i.v.
Experimental: (§1) B. In Vivo Studies: Agonist-Induced Responses
(§2) Spasmogen-Induced Bronchospasm in Guinea Pigs
(§3) Male Hartley guinea pigs (450-550 g) were obtained from Charles River Breeding Laboratories. The animals were fasted overnight and the following day were anesthetized with 0.9 ml/kg i.p. of dilaurethane (containing 0.1 g/ml diallylbarbituric acid, 0.4 g/ml ethylurea and 0.4 g/ml urethane). The left jugular vein was cannulated for the administration of compounds. The trachea was cannulated and the animals were ventilated by a rodent respirator at 55 strokes/min. with a stroke volume of 4 ml. A side arm to the tracheal cannula was connected to a pressure transducer to obtain a continuous measure of inflation pressure. Bronchoconstriction was measured as the percent increase in inflation pressure that peaked within 5 min. after challenge with spasmogen. […] Each animal was challenged with only a single spasmogen. The effect of a compound on the bronchospasm is expressed as a percent inhibition of the increase in inflation pressure compared to the increase in a control group. […] The first two compounds in TABLE II are known compounds and are included for comparison purposes.

[2] = system: PAF-induced bronchospasm; test: PAF-induced bronchospasm in guinea pigs (in vivo); design: species or system guinea pig (male Hartley); conditions: Cavia porcellus, read-out: Agonist Bronchospasm (in vivo) PAF % Inhibition; for inhibition in vivo at 3 mg/kg: oral, PAF 0.4 μg/kg i.v.
Experimental: as §1, §2, §3

[3] = system: PAF-induced platelet aggregation; test: Platelet Aggregation Assay (in vitro PAF antagonism, human platelet-rich plasma); assay type: cell-based; conditions: 37° C., PAF 1-5×10^-8 M
Experimental: Platelet Aggregation Assay
Platelet-activating factor (PAF) causes aggregation of platelets by a receptor-mediated mechanism. Therefore, PAF-induced platelet aggregation provides a simple and convenient assay to screen compounds for PAF antagonism.
Blood was centrifuged at 110×g for 15 min. and the supernatant platelet-rich plasma (PRP) carefully transferred into a polypropylene tube. Platelet-poor-plasma (PPP) was prepared by centrifuging PRP at 12,000×g for 2 min. PRP was used within 3 hr. of drawing the blood.
PAF was dissolved in chloroform:methanol (1:1, v/v) at a concentration of 2 mg/ml and stored at -70° C. An aliquot of this solution was transferred to a polypropylene tube and dried under a flow of nitrogen gas. […] The solution was sonicated for 5 min. This stock solution was further diluted to appropriate concentrations in Hepes-saline-BSA buffer. Collagen and adenosine diphosphate (ADP) were purchased as solutions. Test compounds were initially dissolved in dimethyl sulfoxide (DMSO) at a concentration of 50 mM and then further diluted in Hepes-saline-BSA buffer to achieve appropriate concentrations.
When an aggregating agent such as PAF is added to PRP, platelets aggregate. An aggregometer quantifies this aggregation by measuring and comparing light (infra-red) transmission through PPP and PRP. Aggregation assays were performed using a dual-channel aggregometer. PRP (0.45 ml) in aggregometer cuvettes was continually stirred (37° C.). Solutions (50 μL) of test compounds or vehicle were added to the PRP and, after incubation for 2 min., 10-15 μl aliquots of PAF solution were added to achieve a final concentration of 1-5×10^-8 M. In different experiments the aggregatory response was kept within a set limit by varying the concentration of PAF. Incubations were continued until the increase in light transmission reached a maximum (usually 2 min.). This increase in light transmission reflecting platelet aggregation is transmitted to a computer. The computer calculates the slope of transmission change, thus providing the rate of aggregation. Values for inhibition were calculated by comparing rates of aggregation obtained in the absence and the presence of the compound. For each experiment, a standard PAF antagonist such as 8-chloro-6,11-dihydro-11 -(1-acetyl-4-piperidylidene)-5H-benzo[5,6]cyclohepta[1,2-b]pyridine was used as a positive control. […]

Row | Compound | IC50 [3] [nM] | Agonist Bronchospasm (in vivo) Histamine % Inhibition ([1]; dose 3 mg/kg) [%] | inhibition in vivo at 3 mg/kg [2] [%] | other results
1 | O=C(c1cc[n+]([O-])cc1)N1CCC(=C(c2ccccc2)c2ccccc2)CC1 | 3000 | 0 | 44 | –
2 | [O-][n+]1ccc(CN2CCC(=C(c3ccc(Cl)cc3)c3ccccn3)CC2)cc1 | 12000 | 95 | 18 | –
3 | Cn1ccnc1C(=C1CCN(Cc2cc[n+]([O-])cc2)CC1)c1ccc(Cl)cc1 | 20000 | – | – | –
4 | [O-][n+]1ccc(CN2CCN(C(c3ccc(Cl)cc3)c3cccs3)CC2)cc1 (centres unmarked) | 15000 | – | – | –
5 | [O-][n+]1ccc(CN2CCN(C(c3ccc(Cl)cc3)c3nccs3)CC2)cc1 (centres unmarked) | 12000 | – | – | –
6 | [O-][n+]1ccc(CN2CCC(=C(c3ccc(Cl)cc3)c3nccs3)CC2)cc1 | 35000 | – | – | –
7 | CCOC(=O)N1CCC(=C2c3ccc(Cl)cc3CCc3cccnc32)CC1 [reference compound] | – | – | – | Agonist Bronchospasm (in vivo) Histamine % Inhibition ([1]; dose 1 mg/kg): > 50%; inhibition in vivo at 10 mg/kg ([2]; po): < 50%

Now from value to molecule, other results behind:

Row | IC50 [3] [nM] | Compound | Agonist Bronchospasm (in vivo) Histamine % Inhibition ([1]; dose 3 mg/kg) [%] | inhibition in vivo at 3 mg/kg [2] [%] | other results
8 | 500 | O=C(c1cc[n+]([O-])cc1)N1CCC(=C(c2ccc(Cl)cc2)c2ccccn2)CC1 | 0 | 100 | –
9 | 1000 | O=C(c1cc[n+]([O-])cc1)N1CCN(C(c2ccccc2)c2ccc(Cl)cc2)CC1 (centres unmarked) | 30 | 99 | –
10 | 200 | O=C(c1cc[n+]([O-])cc1)N1CCN(C(c2ccc(Cl)cc2)c2cccs2)CC1 (centres unmarked) | – | 22 | –
11 | 1000 | O=C(c1cc[n+]([O-])cc1)N1CCN(C(c2ccc(Cl)cc2)c2nccs2)CC1 (centres unmarked) | – | 73 | Agonist Bronchospasm (in vivo) Histamine % Inhibition ([1]; dose 10 mg/kg): 25%
12 | 2000 | Cn1ccnc1C(=C1CCN(C(=O)c2cc[n+]([O-])cc2)CC1)c1ccc(Cl)cc1 | – | – | –
13 | 500 | O=C(c1cc[n+]([O-])cc1)N1CCC(=C(c2ccc(Cl)cc2)c2cccs2)CC1 | – | – | –
14 | 1000 | O=C(c1cc[n+]([O-])cc1)N1CCC(=C(c2ccc(Cl)cc2)c2nccs2)CC1 | – | – | –
15 | 610 | CC(=O)N1CCC(=C2c3ccc(Cl)cc3CCc3cccnc32)CC1 [reference compound] | 48 | 4 | –
